This experiment deals with mGluR2 (Rattus norvegicus, UniProt P31421). Put plainly: mGluR2 PAM (positive allosteric modulator) EC50. The experiment is classed as cell-based. The conditions noted are these: positive allosteric modulator activity.

Molecules are shown by their SMILES.

Experimental findings from US8748632B2, “Positive allosteric modulators of group II mGluRs” (Sanford-Burnham Medical Research Institute, priority 2010, dated 2014) are described below.

Chain of mGluR2 (P31421 19-872): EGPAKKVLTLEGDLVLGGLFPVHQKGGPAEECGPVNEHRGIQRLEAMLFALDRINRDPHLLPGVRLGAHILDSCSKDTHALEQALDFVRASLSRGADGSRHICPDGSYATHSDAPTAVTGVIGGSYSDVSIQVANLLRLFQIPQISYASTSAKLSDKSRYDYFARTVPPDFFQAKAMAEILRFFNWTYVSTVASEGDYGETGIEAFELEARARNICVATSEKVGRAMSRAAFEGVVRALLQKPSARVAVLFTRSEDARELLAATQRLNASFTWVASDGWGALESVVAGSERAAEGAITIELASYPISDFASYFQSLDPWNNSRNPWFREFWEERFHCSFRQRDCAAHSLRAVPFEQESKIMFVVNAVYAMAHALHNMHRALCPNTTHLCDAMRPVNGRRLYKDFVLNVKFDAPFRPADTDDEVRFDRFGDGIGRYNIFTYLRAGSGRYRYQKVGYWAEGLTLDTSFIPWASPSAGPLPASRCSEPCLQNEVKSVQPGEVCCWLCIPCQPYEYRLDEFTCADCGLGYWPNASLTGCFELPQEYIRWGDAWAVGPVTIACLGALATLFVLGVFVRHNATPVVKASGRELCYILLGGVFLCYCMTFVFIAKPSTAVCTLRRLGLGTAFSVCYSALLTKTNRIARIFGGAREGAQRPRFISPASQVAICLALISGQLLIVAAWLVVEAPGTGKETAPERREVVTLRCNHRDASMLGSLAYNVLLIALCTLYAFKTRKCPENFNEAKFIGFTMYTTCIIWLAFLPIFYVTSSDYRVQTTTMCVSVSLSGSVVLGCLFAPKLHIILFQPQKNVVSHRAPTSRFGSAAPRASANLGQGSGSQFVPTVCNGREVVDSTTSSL

With `O=C(O)c1cc(-c2cccc(COc3ccc4c(=O)n(C5CCCCC5)oc4c3)c2)ccc1Cl` [Example 61, 4-Chloro-3′-((2-cyclohexyl-3-oxo-2,3-dihydrobenzo[d]isoxazol-6-yloxy)methyl)biphenyl-3-carboxylic acid], the “mGluR2 PAM EC50(μM)” value is on record as “desensitizes”.
